Measurements: article PMC4096598 (PLoS ONE, 2014)
“And” between values parts separate entries of the source, which are not always exact repeats. Equal entries are not always repeated. Where two headings read alike, the source gives them in different places. Marks after values point to notes of the source that are not given here. Ends that are not written are not given here.

Key:
[1] = test system: Mycobacterium tuberculosis H37Rv (ATCC 27294); conditions: literature value ref Rastogi, et al., 1996 [55]; cited from earlier work
[2] = test system: Escherichia coli (ATCC 25922)
[3] = test system: Staphylococcus aureus (ATCC 25923); conditions: ATCC 25923, 10 h
[4] = test system: Staphylococcus aureus (ATCC 25923)
[5] = test system: Mycobacterium tuberculosis H37Rv (ATCC 27294); conditions: 24 h
[6] = test system: Escherichia coli (ATCC 25922); conditions: ATCC 25922, 10 h
[7] = test system: human red blood cells; experiment: Hemolytic assay; assay type: cell-based; conditions: 1 h at room temperature; for hemolysis of human erythrocytes: relative to 10% Triton X-100, average of at least four independent experiments; for IC50: human red blood cells, absorbance 570 nm, vs 10% Triton X-100, mean and 95% confidence intervals, NO = no observed hemolytic activity at 100 µM, read-out: Hemolysis (IC50)
Description: Hemolytic activity was determined by incubating suspensions of human red blood cells with serial dilutions of each selected peptides. Red blood cells were rinsed several times in PBS by centrifugation for 3 min at 3,000 g until the OD of the supernatant reached the OD of the control (PBS only). Red blood cells were counted by a hemocytometer and adjusted to 7.7×10^6±0.3×10^6 cells/mL. Red blood cells were then incubated at room temperature for 1 h in 10% Triton X-100 (positive control), in PBS (blank), or with amphipathic peptides at concentrations of 0.4, 0.8, 1.6, 3.1, 6.2, 12.5 and 25 µM, only for Pin2 [14] and Pin2 [17] the 50 and 100 µM concentrations were evaluated. The samples were then centrifuged at 10,000 g for 5 min, the supernatant was separated from the pellet, and its absorbance measured at 570 nm. The relative optical density compared to that of the suspension treated with 10% Triton X-100 was defined as the percentage of hemolysis.
The experimental values represent means ± standard deviations. The hemolytic constants (IC50) were obtained using a non-linear regression where the data was fit to a Boltzmann sigmoid equation. To determine statistically significant differences, an analysis of variance (ANOVA) followed by post hoc testing using the Tukey's method was performed using the software package Prism 4 (GraphPad, Inc., USA). Statistical significances were accepted at p<0.05.

CC[C@@H](CO)NCCN[C@@H](CC)CO [Ethambutol]
MIC Mycobacterium tuberculosis H37Rv [1]: 0.5 µg/mL and 2.5 µM

CO[C@H]1/C=C/O[C@@]2(C)Oc3c(C)c(O)c4c(O)c(c(/C=N/N5CCN(C)CC5)c(O)c4c3C2=O)NC(=O)/C(C)=C\C=C\[C@H](C)[C@H](O)[C@@H](C)[C@@H](O)[C@@H](C)[C@H](OC(C)=O)[C@@H]1C [Rifampicin]
MIC Mycobacterium tuberculosis H37Rv [1]: 0.4 µg/mL and 0.5 µM

FWGALAKGALKLIGPGSLFSSFSKKD [Pin2 [GPG]]
MIC E. coli [2]: 25 µM | MIC S. aureus [3]: 12.5 µM | MIC S. aureus [4]: 25 µM | MIC Mycobacterium tuberculosis H37Rv [5]: 29 ± 9 µM | MIC E. coli [6]: 12.5 µM | hemolysis of human erythrocytes ([7]; peptide at 25 µM): 30%

FWGALAKGALKLIGSLFSSFSKKD [Pin2 [G]]
MIC E. coli [2]: 12.5 µM | MIC S. aureus [3]: 12.5 µM | MIC S. aureus [4]: 12.5 µM | MIC Mycobacterium tuberculosis H37Rv [5]: 18.7 µM | MIC E. coli [6]: 12.5 µM | IC50 [7]: 1400 nM | hemolysis of human erythrocytes ([7]; peptide at 25 µM): 100%

FWGALAKGALKLIPSLFSSFSKKD [Pin2, Pandinin 2, reference compound]
MIC E. coli [2]: 18.8 µM | MIC S. aureus [3]: 12.5 µM | MIC S. aureus [4]: 37.5 µM | MIC Mycobacterium tuberculosis H37Rv [5]: 22.1 ± 8.6 µM | MIC E. coli [6]: 12.5 µM | IC50 [7]: 3300 nM | hemolysis of human erythrocytes ([7]; peptide at 25 µM): 91%

FWGLKGLKGPGKFSKKL [Pin2 [17]]
MIC E. coli [2]: 25 µM | MIC S. aureus [3]: >25 µM | MIC S. aureus [4]: 80 µM | MIC E. coli [6]: >25 ^† µM

FWGLKGLKKFSKKL [Pin2 [14]]
MIC E. coli [2]: 25 µM | MIC S. aureus [3]: >25 ^† µM | MIC S. aureus [4]: >300 µM | MIC Mycobacterium tuberculosis H37Rv [5]: 11.92 ± 3.7 µM | MIC E. coli [6]: 25 µM | hemolysis of human erythrocytes ([7]; peptide at 100 µM): 25%
